Assays:
[1] = system: cataractous rabbit lens; experiment: Treatment of isolated cataractous rabbit lenses; details: isolated rabbit lenses incubated with lanosterol for 6 days
Procedure: FIG. 9. […] Rabbit lenses (n=13) were dissected and incubated with lanosterol for 6 days and subsequently assessed for lens clarity and transparency. Pairs of photographs of each cataractous rabbit lens showing before and after treatment with scores underneath are shown.
Rabbits were euthanized by CO2 inhalation and lenses were immediately dissected and were treated with vehicle or lanosterol dissolved in vehicle to make 5 mM solutions. Lens tissues were incubated in these solutions for 6 days in the dark at room temperature. Cataract were examined under a microscope and then photographed. Degree of cataract was assessed using AREDS cataract grading system.

[2] = system: dog eyes with cataracts; experiment: Treatment of cataract lenses in dogs; assay type: in vivo; details: dog eyes treated with lanosterol for 6 weeks (intravitreal nanoparticles plus eye drops three times daily)
Procedure: Grading System of Dog Cataract • Grade 0: absence of opacification (no cataract); • Grade 1: a slight degree of opacification (incipient stage); • Grade 2: presence of diffuse opacification involving almost the entire lens (immature stage); • Grade 3: presence of extensive thick opacification involving the entire lens (mature stage)
To assess the effect of lanosterol treatment on cataract in live animals, left eye of dogs with bilateral cataract were treated for topical eye drops. The right eye of each animal was administered one drop of vehicle, 3 times a day so that the drop coated the eye. One drop of lanosterol was administered to the left eye of each animal in the same manner. Both eyes of some control animals were treated for vehicle. […] Each lens was recorded by photography. Degree of cataract was assessed using AREDS cataract grading system.
This study was approved by TACUC of Zhongshan Ophthalmic Center and West China Hospital. […] Degree of cataract was assessed by a blinded examiner and scored based on canine cataract stage, shown below. Improvements in lens clarity and transparency were quantified. […]
The mixture solution was then stirred for 2 h to allow the nanoparticles to form and the acetonitrile to evaporate. […] The loading yield of lanosterol was quantified by high performance liquid chromatography.

CC(C)=CCC[C@@H](C)[C@H]1CC[C@@]2(C)C3=C(CC[C@]12C)[C@@]1(C)CC[C@H](O)C(C)(C)[C@@H]1CC3 [Lanosterol]
cataract severity and lens clarity [1]: reduced cataract severity and increased clarity
cataract severity and lens clarity [2]: reduced cataract severity and increased lens clarity

Source: patent US20190117675A1, “Compositions And Methods To Treat And/Or Prevent Vision Disorders Of The Lens Of The Eye” (Helix Holding Company, priority 2014, published 2019)
